In the supplement of paper PMC11451515:

Tested on: SEM cells
Test: cell viability relative to DMSO control; higher = less cytotoxic
Conditions: 48 h
Method in brief: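 Library compounds in DMSO were pin-dosed in an 11-point threefold series (47 μM to 0.79 nM) onto leukemia cells in 1536-well plates (5 μl). Plates held 500 cells/well of NOMO1 or SEM or 1000 cells/well of P12-Ichikawa, each adapted for at least four passages in each medium. Luminescence was read with CellTiter-Glo One after 48 h at 37°C. Viability means the per-plate percentage relative to DMSO wells, using cell-free wells as background.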

[1] = HPLM + 10% dialyzed FBS, 0.000781 µM
[2] = HPLM + 10% dialyzed FBS, 0.00234 µM
[3] = HPLM + 10% dialyzed FBS, 0.00702 µM
[4] = HPLM + 10% dialyzed FBS, 0.0211 µM
[5] = HPLM + 10% dialyzed FBS, 0.0632 µM
[6] = HPLM + 10% dialyzed FBS, 0.19 µM
[7] = HPLM + 10% dialyzed FBS, 0.569 µM
[8] = HPLM + 10% dialyzed FBS, 1.71 µM
[9] = HPLM + 10% dialyzed FBS, 5.12 µM
[10] = HPLM + 10% dialyzed FBS, 15.4 µM
[11] = HPLM + 10% dialyzed FBS, 46.1 µM
[12] = RPMI 5 mM glucose + 10% FBS, 0.000781 µM
[13] = RPMI 5 mM glucose + 10% FBS, 0.00234 µM
[14] = RPMI 5 mM glucose + 10% FBS, 0.00702 µM
[15] = RPMI 5 mM glucose + 10% FBS, 0.0211 µM
[16] = RPMI 5 mM glucose + 10% FBS, 0.0632 µM
[17] = RPMI 5 mM glucose + 10% FBS, 0.19 µM
[18] = RPMI 5 mM glucose + 10% FBS, 0.569 µM
[19] = RPMI 5 mM glucose + 10% FBS, 1.71 µM
[20] = RPMI 5 mM glucose + 10% FBS, 5.12 µM
[21] = RPMI 5 mM glucose + 10% FBS, 15.4 µM
[22] = RPMI 5 mM glucose + 10% FBS, 46.1 µM
[23] = RPMI 5 mM glucose + 10% dialyzed FBS, 0.000781 µM
[24] = RPMI 5 mM glucose + 10% dialyzed FBS, 0.00234 µM
[25] = RPMI 5 mM glucose + 10% dialyzed FBS, 0.00702 µM
[26] = RPMI 5 mM glucose + 10% dialyzed FBS, 0.0211 µM
[27] = RPMI 5 mM glucose + 10% dialyzed FBS, 0.0632 µM
[28] = RPMI 5 mM glucose + 10% dialyzed FBS, 0.19 µM
[29] = RPMI 5 mM glucose + 10% dialyzed FBS, 0.569 µM
[30] = RPMI 5 mM glucose + 10% dialyzed FBS, 1.71 µM
[31] = RPMI 5 mM glucose + 10% dialyzed FBS, 5.12 µM
[32] = RPMI 5 mM glucose + 10% dialyzed FBS, 15.4 µM
[33] = RPMI 5 mM glucose + 10% dialyzed FBS, 46.1 µM

Row | SMILES | cell viability [1] | cell viability [2] | cell viability [3] | cell viability [4] | cell viability [5] | cell viability [6] | cell viability [7] | cell viability [8] | cell viability [9] | cell viability [10] | cell viability [11] | cell viability [12] | cell viability [13] | cell viability [14] | cell viability [15] | cell viability [16] | cell viability [17] | cell viability [18] | cell viability [19] | cell viability [20] | cell viability [21] | cell viability [22] | cell viability [23] | cell viability [24] | cell viability [25] | cell viability [26] | cell viability [27] | cell viability [28] | cell viability [29] | cell viability [30] | cell viability [31] | cell viability [32] | cell viability [33]
1 | Nc1ccc(C(=O)Nc2cccc(-c3nc(N4CCOCC4)c4oc5ncccc5c4n3)c2)cn1 | 119% | 120% | 130% | 113% | 115% | 107% | 96.3% | 116% | 90.1% | 85.8% | 4.82% | 88% | 80.1% | 71.8% | 75.2% | 83.9% | 68.1% | 71.7% | 77.4% | 57.9% | 38.9% | 3.46% | 129% | 119% | 116% | 111% | 114% | 102% | 104% | 107% | 79.1% | 64% | 5.84%
2 | C[C@@H]1CC[C@@]2(CC[C@]3(C)\C(=C/C[C@@H]4[C@@]5(C)CC[C@H](O)C(C)(C)[C@@H]5CC[C@@]34C)[C@@H]2[C@H]1C)C(O)=O | 85.6% | 109% | 111% | 110% | 112% | 116% | 123% | 122% | 108% | 117% | 121% | 105% | 101% | 108% | 96.2% | 113% | 123% | 109% | 99.2% | 102% | 114% | 61.6% | 107% | 116% | 114% | 111% | 112% | 118% | 118% | 136% | 129% | 118% | 110%
3 | NC(=O)c1cnccn1 | 104% | 116% | 117% | 106% | 120% | 120% | 123% | 125% | 119% | 122% | 118% | 108% | 112% | 133% | 105% | 116% | 129% | 127% | 121% | 119% | 120% | 119% | – | – | – | – | – | – | – | – | – | – | –
4 | CCCN[C@H]1CCc2nc(N)sc2C1 | 93.2% | 42% | 98.4% | 98.8% | 104% | 96.4% | 95.4% | 99.2% | 104% | 99.8% | 105% | 91.7% | 39.1% | 99.4% | 87.3% | 96.2% | 98.9% | 103% | 97.6% | 85.6% | 105% | 104% | 89.2% | 37.6% | 98.3% | 101% | 119% | 125% | 106% | 105% | 112% | 111% | 91.4%
5 | C/C1=C2/[N]3[Co+]456([OH])<-[N]7=C1[C@@H](CCC(N)=O)C(C)(C)/C7=C/C1=[N]->4C(=C(/C)C4=[N]->5[C@@](C)([C@H]3[C@H](CC(N)=O)[C@@]2(C)CCC(=O)NC[C@@H](C)OP(=O)([O-])O[C@H]2[C@@H](O)[C@@H](n3c[n]->6c5cc(C)c(C)cc53)O[C@@H]2CO)[C@@](C)(CC(N)=O)[C@@H]4CCC(N)=O)/[C@@](C)(CC(N)=O)[C@@H]1CCC(N)=O | 93.9% | 90.7% | 94.6% | 98.2% | 98.3% | 94.2% | 94.6% | 92.8% | 94.5% | 73.8% | 60.1% | 112% | 116% | 104% | 82.5% | 113% | 95.9% | 99.3% | 97.3% | 77.1% | 91.6% | 79.9% | 96.4% | 96.6% | 109% | 100% | 110% | 95.6% | 101% | 101% | 103% | 80.4% | 71%
6 | Clc2cccc(Cl)c2\N=C1/NCCN1 | 76.6% | 98.6% | 28.8% | 105% | 90.8% | 116% | 119% | 108% | 114% | 122% | 113% | 92.7% | 103% | 9.62% | 119% | 106% | 115% | 105% | 112% | 112% | 119% | 110% | 93.3% | 116% | 28.5% | 126% | 131% | 132% | 127% | 130% | 131% | 117% | 138%
7 | CC[C@H]1OC(=O)[C@H](C)[C@@H](O[C@H]2C[C@@](C)(OC)[C@@H](O)[C@H](C)O2)[C@H](C)[C@@H](O[C@@H]2O[C@H](C)C[C@H](N(C)C)[C@H]2O)[C@](C)(OC)C[C@@H](C)C(=O)[C@H](C)[C@@H](O)[C@]1(C)O | 96.8% | 95.3% | 98.4% | 98.4% | 103% | 91.7% | 93.8% | 97.3% | 84.6% | 92.7% | 87.6% | 97% | 102% | 96% | 99% | 103% | 106% | 105% | 95.8% | 90.4% | 93.4% | 84.7% | 105% | 111% | 111% | 101% | 110% | 105% | 117% | 114% | 82.4% | 93% | 83.2%
8 | CCC(CCCC)COC(=O)C(\C#N)=C(\c1ccccc1)c2ccccc2 (centres undefined) | 91.6% | 55.3% | 90.3% | 89.3% | 98.8% | 93.9% | 95.9% | 90.6% | 110% | 99.6% | 86.3% | 79.8% | 44% | 99% | 86.1% | 94.1% | 96.6% | 96.2% | 97.8% | 95.6% | 91.6% | 88.9% | 88.3% | 46.3% | 103% | 99.7% | 99.9% | 90.3% | 107% | 86% | 91.5% | 106% | 107%
9 | CCCCc1ccc2[nH]c(NC(=O)OC)nc2c1 | 75.4% | 92.3% | 98.4% | 79.4% | 72.3% | 26.6% | 25.9% | 23.8% | 26.2% | 23% | 16.1% | 80% | 81.5% | 87.2% | 75.5% | 52.4% | 16.4% | 15.6% | 14.5% | 18% | 13.1% | 10.8% | 98.8% | 95.8% | 102% | 77.2% | 56.9% | 23.5% | 18.2% | 20.8% | 23.6% | 19.4% | 12.4%
10 | c1cc(-c2cnn3cc(-c4ccc(OCCN5CCCCC5)cc4)cnc23)ccn1 | 69.3% | 58.4% | 94.8% | 34.4% | 32.7% | 31.1% | 27.9% | 96.2% | 88.5% | 8.18% | 30.9% | 103% | 76.7% | 121% | 63.7% | 51.6% | 43.4% | 34.8% | 103% | 105% | 40.4% | 23.3% | 91.5% | 60.9% | 99.8% | 45.4% | 31.8% | 24% | 25.9% | 90% | 78.4% | 42.2% | 23.7%
11 | OC1=CC=C(C=C1)C/2=C/C3=C(OC2)C=C(O)C=C3 | 107% | 111% | 112% | 109% | 114% | 120% | 101% | 84.9% | 21.2% | 2.3% | 1.5% | 108% | 117% | 122% | 115% | 109% | 106% | 80.8% | 93.1% | 23.7% | 1.46% | 1.13% | 111% | 107% | 125% | 90.8% | 99.1% | 108% | 85.5% | 89.1% | 25% | 2.21% | 1.74%
12 | C=CC(=O)Nc1cccc(Sc2nc(Nc3ccc(N4CCN(C)CC4)cc3)ncc2Cl)c1 | 91.4% | 105% | 113% | 116% | 114% | 116% | 104% | 86.4% | 71.1% | 86% | 3.8% | 53.5% | 68.7% | 81.6% | 69.1% | 82.7% | 81.2% | 91.7% | 60.6% | 41.3% | 65.9% | 2.06% | 88.8% | 98.2% | 97.6% | 99.9% | 118% | 114% | 72.9% | 80.9% | 57.3% | 58.5% | 2.75%
13 | CNC[C@H](O)[C@@H](O)[C@H](O)[C@H](O)CO | 96.3% | 106% | 103% | 106% | 106% | 114% | 127% | 63.4% | 121% | 40.9% | 112% | 103% | 96.2% | 107% | 93.9% | 117% | 115% | 132% | 61.3% | 112% | 24.9% | 114% | 98.1% | 118% | 98.8% | 88.8% | 116% | 103% | 122% | 58.3% | 136% | 28% | 119%
14 | CN(C)c1nc(Cc2ccc(NC(=O)c3ccc(C(F)(F)F)cc3)cc2)nc(N(C)C)c1CC(=O)O | 104% | 107% | 106% | 100% | 116% | 100% | 123% | 112% | 125% | 116% | 83.4% | 113% | 99.4% | 101% | 93.7% | 111% | 82.8% | 118% | 93.4% | 110% | 100% | 74.7% | 99.1% | 118% | 102% | 108% | 121% | 117% | 113% | 115% | 109% | 105% | 90%
15 | O=C(/C=C/c1ccc(/C=C/C(=O)Nc2ccc(C3=NCCN3)cc2)cc1)Nc1ccc(C2=NCCN2)cc1 | 96.5% | 103% | 101% | 115% | 129% | 118% | 115% | 117% | 103% | 103% | 115% | 93.6% | 104% | 95.5% | 102% | 109% | 99.2% | 110% | 114% | 93.5% | 72.8% | 52.3% | 104% | 120% | 115% | 114% | 109% | 113% | 111% | 120% | 108% | 97.7% | 64.6%
